Results taken from US5541116A, “Method for the stabilization of endogenous, physiologically active peptides” (B.R.A.H.M.S. Diagnostica GmbH, priority 1991, dated 1996).
Like-named read-outs stand apart in the source and are kept apart here. Where a SMILES comes first, the peptide text is derived from it. [ ]: non-standard residue; d: D form. The star is where a group is joined. Sta = CC(C)C[C@H](N)[C@@H](O)CC(=O)O; Isovaleryl = CC(C)CC(=O)*

Assays:
[1] = system: endogenous proteases which are active in human serum and plasma; assay: Hydrolysis of 125I-ACTH 1-39 in human serum or EDTA plasma with protease inhibitors (RP-HPLC, radioactivity detection); type: biochemical
[2] = system: endogenous proteases which are active in human serum and plasma; assay: Variation of inhibitor concentrations to find the minimum needed for adequate protection of the peptides; type: biochemical; conditions: in the presence of the other inhibitors; serum or plasma sample
From the text: To determine the concentrations of the individual inhibitors which are required for adequate protection of the peptides, in the presence of the other inhibitors, the concentrations were repeatedly varied.

[3] = 125I-ACTH 1-39, inhibitor 100 μM, EDTA plasma, 22° C., 25 h
[4] = 125I-ACTH 1-39, inhibitor 100 μM, serum, 22° C., 18 h
[5] = 125I-ACTH 1-39, inhibitor 1 mM, EDTA plasma, 22° C., 25 h
[6] = 125I-ACTH 1-39, inhibitor 1 mM, serum, 22° C., 18 h

## CC(C)C[C@@H](N)[C@H](O)C(=O)N[C@H](C(=O)N[C@H](C(=O)N[C@@H](CC(=O)O)C(=O)O)C(C)C)C(C)C [Amastatin]
[1]; [3]
  % of hydrolysis rate of the control, in EDTA plasma: 3%
[1]; [4]
  % of hydrolysis rate of the control, in serum: 17%

## N=C(N)c1ccccc1 [Benzamidine]
[1]; [5]
  % of hydrolysis rate of the control, in EDTA plasma: 80%
[1]; [6]
  % of hydrolysis rate of the control, in serum: 84%

## CC(C)C[C@H](NC(=O)[C@@H](O)[C@H](N)Cc1ccccc1)C(=O)O [Bestatin]
[1]; [5]
  % of hydrolysis rate of the control, in EDTA plasma: 27%
[1]; [6]
  % of hydrolysis rate of the control, in serum: 44%

## CC(C)C[C@H](NC(=O)N[C@H](C(=O)N[C@@H](CCC(N)=O)C(=O)N[C@@H](C)C=O)[C@@H]1CCNC(=N)N1)C(=O)O [Elastatinal]
[1]; [3]
  % of hydrolysis rate of the control, in EDTA plasma: 100%
[1]; [4]
  % of hydrolysis rate of the control, in serum: 97%

## CC(=O)N[C@@H](CC(C)C)C(=O)N[C@@H](CC(C)C)C(=O)N[C@H](C=O)CCCNC(=N)N [Leupeptin]
[2]
  minimum concentration present in the sample for effective protection: 50 µM
[1]
  % of hydrolysis rate of the control, in EDTA plasma: 27
  % of hydrolysis rate of the control, in serum: 41

## CCN1C(=O)C=CC1=O [N-Ethylmaleimide]
[1]; 125I-ACTH 1-39, inhibitor 2 mM, EDTA plasma, 22° C., 25 h
  % of hydrolysis rate of the control, in EDTA plasma: 54%
[1]; 125I-ACTH 1-39, inhibitor 2 mM, serum, 22° C., 18 h
  % of hydrolysis rate of the control, in serum: 48%

## CC(C)CC(=O)N[C@H](C(=O)N[C@H](C(=O)N[C@@H](CC(C)C)[C@@H](O)CC(=O)N[C@@H](C)C(=O)N[C@@H](CC(C)C)[C@@H](O)CC(=O)O)C(C)C)C(C)C [Pepstatin] (Isovaleryl-VV[Sta]A[Sta]-OH)
[1]; [3]
  % of hydrolysis rate of the control, in EDTA plasma: 79%
[1]; [4]
  % of hydrolysis rate of the control, in serum: 105%

## O=S(=O)(F)Cc1ccccc1 [Phenylmethylsulphonyl fluoride]
[1]
  % of hydrolysis rate of the control, in EDTA plasma: 100
  % of hydrolysis rate of the control, in serum: 97

## CC(C)C[C@H](NP(=O)(O)O[C@@H]1O[C@@H](C)[C@H](O)[C@@H](O)[C@H]1O)C(=O)N[C@@H](Cc1c[nH]c2ccccc12)C(=O)O [Phosphoramidone]
[1]; [5]
  % of hydrolysis rate of the control, in EDTA plasma: 85%
[1]; [6]
  % of hydrolysis rate of the control, in serum: 98%

## O=S(=O)(O)c1cc[c]([Hg][Cl])cc1 [p-Choloromercuryphenylsulphonic acid, p-Choloromercury-phenylsulphonic acid]
[1]
  % of hydrolysis rate of the control, in EDTA plasma: 62
  % of hydrolysis rate of the control, in serum: 94

## Antithrombin III
[1]; 125I-ACTH 1-39, inhibitor 0.1 unit/ml, EDTA plasma, 22° C., 25 h
  % of hydrolysis rate of the control, in EDTA plasma: 79%
[1]; 125I-ACTH 1-39, inhibitor 0.1 unit/ml, serum, 22° C., 18 h
  % of hydrolysis rate of the control, in serum: 107%

## Heparin
[1]; 125I-ACTH 1-39, inhibitor 5 mg/ml, EDTA plasma, 22° C., 25 h
  % of hydrolysis rate of the control, in EDTA plasma: 103%
[1]; 125I-ACTH 1-39, inhibitor 5 mg/ml, serum, 22° C., 18 h
  % of hydrolysis rate of the control, in serum: 126%

B1: Trypsin inhibitor (soybean): soybean trypsin inhibitor (Sigma T-900) (protein, UniProt P01070 25-205, looked up)
Trypsin inhibitor A: DFVLDNEGNPLENGGTYYILSDITAFGGIRAAPTGNERCPLTVVQSRNELDKGIGTIISSPYRIRFIAEGHPLSLKFDSFAVIMLCVGIPTEWSVVEDLPEGPAVKIGENKDAMDGWFRLERVSDDEFNNYKLVFCPQQAEDDKCGDIGISIDHDDGTRRLVVSKNKPLVVQFQKLDKESL
[1]; 125I-ACTH 1-39, inhibitor 0.1 mg/ml, EDTA plasma, 22° C., 25 h
  % of hydrolysis rate of the control, in EDTA plasma: 71%
[1]; 125I-ACTH 1-39, inhibitor 0.1 mg/ml, serum, 22° C., 18 h
  % of hydrolysis rate of the control, in serum: 78%
